# Paper PMC7440915, “Discovery of surrogate agonists for visceral fat Treg cells that modulate metabolic indices in vivo” (eLife, 2020)
# System: vTreg53 TCR
# Assay: vTreg53 TCR tetramer staining of single peptide-A^b yeast clone
# Format: binding, murine
# Conditions: 500 nM final tetramer concentration
# Procedure: Figure 2. Identification of surrogate peptides recognized by the vTreg53 TCR. (A) The vTreg53 TCR was used to screen and isolate the peptide-MHC yeast display. vTreg53 TCR tetramer staining (500 nM of TCR-SA) together with c-Myc staining is shown for the naïve library and four consecutive rounds of selection. […] (C) Positional frequency representation from the deep sequencing of the third round of selection with vTreg53. (D) Positional frequency matrix based on the deep sequencing of the fourth round of the peptide-MHC yeast selection. […] Data shown are representative of at least two independent experiments. Figure 2—figure supplement 1. Evolution of peptide-Ab yeast display. […] TEXT PRINTED IN THE PICTURE: (B) Fat7: Fraction: 0.596 | (B) TMYKGPHAVAAFT: Fraction: 0.369 | (B) LMFKGPHAVAAFT: Fraction: 0.029 | (B) FTYKNPRPVAATG: Fraction: 0.006 | (B) Fat15: Fraction: 0.000 | (B) TMYKNPRPVAATG: Fraction: 0.000 | (B) TMYKNPRPVAATG: Fraction: 0.000 DOUBTS OF THE COPYIST ABOUT THIS PICTURE: Panel B: the Fraction values are shares of sequencing reads from a selection, so it is uncertain whether they count as a result for a substance. […]
# Yeast were passaged in SDCAA and induced with SGCAA and selected with streptavidin (SA) - coated magnetic MACS beads (Miltenyi) coated with biotinylated TCR. […] Peptide-A^b surface expression was monitored with anti-c-myc (Cell Signaling) antibody staining. […]
sequence,measurement,value
LMFKGPHAVQAVG [Fat7],vTreg53 TCR-SA tetramer staining,positive
